Each structure is given as a SMILES string.

In this assay the target is T1, CDC42 BPB (MRCKB) (Homo sapiens, UniProt Q9Y5S2).
T1 construct: purchased Thermo Fisher Scientific (Life Technologies) SelectScreen
Nature of the assay: SelectScreen Z'LYTE. In kind it is biochemical. In outline: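 SelectScreen broad panel; activity (Z'LYTE, Adapta) plus binding formats. ATP: Km app for CSF1R Z'LYTE; 10 for CAMK1 Adapta. Readout = % per kinase.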

T1 sequence (Q9Y5S2 whole entry): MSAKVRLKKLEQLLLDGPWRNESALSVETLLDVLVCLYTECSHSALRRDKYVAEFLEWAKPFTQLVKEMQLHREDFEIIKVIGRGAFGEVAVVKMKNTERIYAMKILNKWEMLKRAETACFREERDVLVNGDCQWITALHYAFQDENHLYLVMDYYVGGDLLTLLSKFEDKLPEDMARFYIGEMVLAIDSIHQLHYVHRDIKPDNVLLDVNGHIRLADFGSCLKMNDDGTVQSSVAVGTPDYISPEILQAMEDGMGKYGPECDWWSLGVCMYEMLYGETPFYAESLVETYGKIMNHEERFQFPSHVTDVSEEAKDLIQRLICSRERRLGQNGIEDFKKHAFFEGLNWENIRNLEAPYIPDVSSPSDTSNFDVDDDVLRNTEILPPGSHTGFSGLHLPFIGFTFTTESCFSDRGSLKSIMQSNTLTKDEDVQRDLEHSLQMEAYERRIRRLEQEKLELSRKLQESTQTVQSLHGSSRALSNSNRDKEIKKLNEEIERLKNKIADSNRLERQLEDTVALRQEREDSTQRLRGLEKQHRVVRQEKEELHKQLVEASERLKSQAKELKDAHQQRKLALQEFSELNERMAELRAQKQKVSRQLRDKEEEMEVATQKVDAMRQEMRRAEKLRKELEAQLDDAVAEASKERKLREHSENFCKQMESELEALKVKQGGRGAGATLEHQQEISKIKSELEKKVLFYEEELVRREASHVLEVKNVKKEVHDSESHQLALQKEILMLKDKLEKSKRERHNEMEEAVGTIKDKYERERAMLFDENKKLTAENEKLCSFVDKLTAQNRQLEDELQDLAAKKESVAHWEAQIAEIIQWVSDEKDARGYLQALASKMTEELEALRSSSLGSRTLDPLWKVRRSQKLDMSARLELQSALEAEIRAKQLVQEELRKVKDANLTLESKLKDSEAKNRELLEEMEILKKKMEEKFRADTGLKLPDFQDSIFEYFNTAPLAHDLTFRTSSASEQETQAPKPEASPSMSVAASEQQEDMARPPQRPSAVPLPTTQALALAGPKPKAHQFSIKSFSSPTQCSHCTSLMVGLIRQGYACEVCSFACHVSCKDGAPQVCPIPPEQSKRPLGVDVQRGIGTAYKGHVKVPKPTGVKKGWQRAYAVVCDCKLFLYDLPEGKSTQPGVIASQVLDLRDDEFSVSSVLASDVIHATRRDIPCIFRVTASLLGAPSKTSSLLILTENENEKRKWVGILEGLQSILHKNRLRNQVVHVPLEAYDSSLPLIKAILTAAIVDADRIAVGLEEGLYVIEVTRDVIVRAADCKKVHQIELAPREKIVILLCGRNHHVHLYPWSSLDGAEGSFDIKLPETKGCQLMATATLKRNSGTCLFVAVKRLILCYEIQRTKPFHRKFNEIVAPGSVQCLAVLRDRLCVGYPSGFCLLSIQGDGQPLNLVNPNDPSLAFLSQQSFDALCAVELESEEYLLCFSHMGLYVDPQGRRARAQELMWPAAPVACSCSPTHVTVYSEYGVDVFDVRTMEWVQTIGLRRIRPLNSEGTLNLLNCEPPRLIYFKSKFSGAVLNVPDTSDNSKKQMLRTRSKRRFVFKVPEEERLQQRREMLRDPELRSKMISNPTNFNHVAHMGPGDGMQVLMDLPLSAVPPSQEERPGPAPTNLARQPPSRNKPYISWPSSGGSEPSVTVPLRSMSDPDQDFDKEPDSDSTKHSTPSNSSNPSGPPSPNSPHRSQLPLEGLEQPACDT

The term inhibition denotes the change of the read-out against control, counted positive when it falls. For the compound `CN(C(=O)CN1CCOCC1)c1ccc2sc3c(-c4cccc5c(=O)cc(N6CC7CCC(C6)O7)oc45)cccc3c2c1` [NU5455], the inhibition at 1 µM is -2.5%.

Source of the values: paper PMC6934184, “Selective DNA-PKcs inhibition extends the therapeutic index of localized radiotherapy and chemotherapy” (The Journal of Clinical Investigation, 2019).
